Source: US20210198201A1, “Orally Active Melanocortin Receptor-4 Compounds” (Palatin Technologies, Inc., priority 2018, published 2021)
pEC50, pKi: −log10 of the molar value.

Columns and labels:
hMC5r [1] = biological target: T1, hMC5r (Homo sapiens, UniProt P33032); test: Binding of iodine-125 labeled NDP-α-MSH, human recombinant CHO cells, hMC5r
T1 construct: expressed in transfected cells; host or cells: CHO
Protocol: (§1) Melanocortin receptor binding and function of Compound 7.1 was tested. Ki binding values (nM) were calculated utilizing the percent inhibit of the binding of iodine-125 labeled NDP-α-MSH against B16-F1 cells for mMC1r, and human recombinant CHO cells for hMC3r, hMC4r and hMC5r, with the inhibition constant calculated using the Cheng Prusoff equation. Functional results (EC50 and efficacy) were calculated utilizing cAMP assays with NDP-α-MSH for mMC1r, hMC3r and hMC4r, ACTH for hMC2r, and α-MSH for hMC5r for agonist measures, with the same target cells for melanocortin receptors mMC1r, hMC3r, hMC4r and hMC5r, and human recombinant Cloudman M3 cells for hMC2r.

mMC1r = biological target: T2, mMC1r (Mus musculus, UniProt Q01727); test: cAMP assay mMC1r (B16-F1 cells, NDP-α-MSH reference); format: cell-based
T2 construct: endogenous in cells; host or cells: B16-F1
Protocol: as §1

hMC3r = biological target: T3, hMC3r (Homo sapiens, UniProt P41968); test: cAMP assay hMC3r (human recombinant CHO cells, NDP-α-MSH reference); format: cell-based
T3 construct: expressed in transfected cells; host or cells: CHO
Protocol: as §1

C57Bl/6 DIO mice = test: Oral administration, feed intake and body weight in C57Bl/6 DIO mice (comparison with MC4r knockout); format: in vivo, mouse
Protocol: Feed intake and body weight was evaluated in MCr4 knockout (MC4r−/−) mice (Jackson Laboratories) compared to C57Bl/6 DIO mice. […] Feed weights were taken at time 0, 2, 6 and 24 hours post lights out. […] The change in body weight is shown in FIG. 4 starting on study day 5, the first day of administration of compound 7.1. […] Additionally, there was a statistically significant mean difference, 2.8%, 95% Cl (1.281, 4.253), and p value <0.0001 between DIO mice receiving compound 7.1 and MC4r (−/−) receiving compound 7.1.

hMC5r [2] = biological target: T1, hMC5r; test: cAMP assay hMC5r (human recombinant CHO cells, α-MSH reference); format: cell-based
Protocol: as §1

hMC2r = biological target: T4, hMC2r (Homo sapiens, UniProt Q01718); test: cAMP assay hMC2r (human recombinant Cloudman M3 cells, ACTH reference); format: cell-based
T4 construct: expressed in transfected cells; host or cells: Cloudman M3
Protocol: as §1

MC4r [3] = biological target: T5, MC4r (Homo sapiens, UniProt P32245); test: cAMP functional study in human MC4r expression system approximating maximal physiologic receptor densities; format: cell-based; parameters: host or cells: TREx-293; details: low receptor density human MC4r system
Protocol: Assay for Agonist Activity. Accumulation of intracellular cAMP was examined as a measure of the ability of the peptides of the present invention to elicit a functional response in HEK-293 cells that express MC4-R. Confluent HEK-293 cells that express recombinant hMC4-R were detached from culture plates by incubation in enzyme-free cell dissociation buffer. Dispersed cells were suspended in Hanks' Balanced Salt Solution containing 10 mM HEPES (pH 7.5), 1 mM MgCl2, 1 mM glutamine, 0.5% albumin and 0.3 mM 3-isobutyl-1-methyl-xanthine (IBMX), a phosphodiesterase inhibitor. The cells were plated in 96-well plates at a density of 0.5×10^5 cells per well and pre-incubated for 10 minutes. Cells were exposed for 15 minutes at 37° C. to peptides of the present invention dissolved in DMSO (final DMSO concentration of 1%) at a concentration range of 0.05-5000 nM in a total assay volume of 200 μL. NDP-α-MSH was used as the reference agonist. cAMP levels were determined by an HTRF® cAMP cell-based assay system from Cisbio Bioassays utilizing cryptate-labeled anti-cAMP and d2-labeled cAMP, with plates read on a Perkin-Elmer Victor plate reader at […]. Data analysis was performed by nonlinear regression analysis with Graph-Pad Prism® software. The maximum efficacies of the test peptides of the present invention were compared to that achieved by the reference melanocortin agonist NDP-αMSH.
Low Receptor Density Systems. In functional studies preferably a human MC4r expression system approximating maximal human physiologic receptor densities is employed. In one aspect, a tetracycline-regulated mammalian expression system that uses regulatory elements from the E. coli Tn10-encoded tetracycline (Tet) resistance operon was employed (T-REx™ System, Invitrogen). By use of the T-REx™ System, expression of the gene of interest, the human MC4-R gene, was repressed in the absence of tetracycline or doxycycline and induced in the presence of tetracycline or doxycycline, with receptor density being dependent on the concentration of tetracycline or doxycycline. See generally Yao F. et al: Tetracycline repressor, tetR, rather than the tetR-mammalian cell transcription factor fusion derivatives, regulates inducible gene expression in mammalian cells. Hum. Gene Ther. 9:1939-1950 (1998), incorporated here by reference. Regulation was based on the binding of tetracycline or doxycycline, a derivative of tetracycline, to the Tet repressor and derepression of the promoter controlling expression of the human MC4-R gene. In general tetracycline or related regulators, such as tetracycline-derivatives, may be used to induce the gene expression. An inducible expression plasmid for expression of human MC4-R gene under the control of the strong human cytomegalovirus immediate-early (CMV) promoter and two tetracycline operator 2 (TetO2) sites was employed, together with a regulatory plasmid, pcDNA6/TR, which encodes the Tet repressor (TetR) under the control of the human SV40 promoter. Thus, expression of the human MC4-R gene from the inducible expression vector was controlled by the strong CMV promoter into which 2 copies of the tet operator 2 (TetO2) sequence had been inserted in tandem. The TetO2 sequences consisted of 2 copies of 19-nucleotide sequence separated by a 2 base pair spacer. Each 19 nucleotide TetO2 sequence served as the binding site for 2 molecules of the Tet repressor. The expression vector pcDNA4/TO/MC4R was introduced into TREx-293 (Invitrogen, R710-07), a cell line stably expressing the tetracycline repressor pcDNA6/TR using lipofectamin 2000 reagent (Invitrogen, 11668-019). Alternatively, both the expression vector and repressor are introduced into host cells by standard transformation or transfection methods.

MC4r [4] = biological target: T5, MC4r; test: cAMP assay hMC4r (human recombinant CHO cells, NDP-α-MSH reference); format: cell-based; parameters: expressed in transfected cells; host or cells: CHO
Protocol: as §1

T5 sequence (P32245 whole entry): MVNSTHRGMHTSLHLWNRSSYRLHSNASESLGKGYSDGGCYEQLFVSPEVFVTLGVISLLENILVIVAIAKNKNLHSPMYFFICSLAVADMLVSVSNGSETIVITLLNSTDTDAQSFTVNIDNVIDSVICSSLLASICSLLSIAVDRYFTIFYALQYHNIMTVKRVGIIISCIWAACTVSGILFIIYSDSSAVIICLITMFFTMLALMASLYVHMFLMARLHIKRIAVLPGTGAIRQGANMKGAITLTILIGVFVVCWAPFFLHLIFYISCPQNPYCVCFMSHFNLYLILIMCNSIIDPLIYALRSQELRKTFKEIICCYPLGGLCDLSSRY
T1 sequence (P33032 whole entry): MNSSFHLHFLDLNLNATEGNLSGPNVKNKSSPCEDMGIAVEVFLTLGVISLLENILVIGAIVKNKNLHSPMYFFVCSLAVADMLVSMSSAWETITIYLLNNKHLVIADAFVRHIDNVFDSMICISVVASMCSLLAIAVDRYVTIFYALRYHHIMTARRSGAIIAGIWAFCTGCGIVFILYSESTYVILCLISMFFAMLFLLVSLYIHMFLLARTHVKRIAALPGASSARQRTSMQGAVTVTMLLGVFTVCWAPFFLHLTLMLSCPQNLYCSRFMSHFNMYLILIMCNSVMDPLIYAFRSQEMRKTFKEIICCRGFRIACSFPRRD
T4 sequence (Q01718 whole entry): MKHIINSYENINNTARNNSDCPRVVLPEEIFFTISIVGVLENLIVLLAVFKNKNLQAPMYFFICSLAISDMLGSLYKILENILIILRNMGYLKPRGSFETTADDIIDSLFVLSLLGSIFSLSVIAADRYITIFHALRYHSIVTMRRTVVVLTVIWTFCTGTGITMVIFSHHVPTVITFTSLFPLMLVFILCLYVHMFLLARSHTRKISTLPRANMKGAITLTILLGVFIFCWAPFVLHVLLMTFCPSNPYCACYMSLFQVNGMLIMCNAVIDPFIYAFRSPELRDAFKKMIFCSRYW
T4 sequence (Q9D159 whole entry partner): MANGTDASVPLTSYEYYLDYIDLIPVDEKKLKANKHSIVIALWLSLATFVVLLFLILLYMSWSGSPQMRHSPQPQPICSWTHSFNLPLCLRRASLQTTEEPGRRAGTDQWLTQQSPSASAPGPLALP
T2 sequence (Q01727 whole entry): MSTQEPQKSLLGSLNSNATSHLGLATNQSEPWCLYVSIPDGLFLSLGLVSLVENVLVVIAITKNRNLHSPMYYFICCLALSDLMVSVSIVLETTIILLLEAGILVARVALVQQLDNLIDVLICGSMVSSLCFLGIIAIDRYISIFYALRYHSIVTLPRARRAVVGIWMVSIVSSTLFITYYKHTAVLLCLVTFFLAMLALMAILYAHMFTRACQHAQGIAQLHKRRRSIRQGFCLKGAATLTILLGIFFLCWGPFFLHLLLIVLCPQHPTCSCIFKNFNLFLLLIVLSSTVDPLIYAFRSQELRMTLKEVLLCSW
T3 sequence (P41968 whole entry): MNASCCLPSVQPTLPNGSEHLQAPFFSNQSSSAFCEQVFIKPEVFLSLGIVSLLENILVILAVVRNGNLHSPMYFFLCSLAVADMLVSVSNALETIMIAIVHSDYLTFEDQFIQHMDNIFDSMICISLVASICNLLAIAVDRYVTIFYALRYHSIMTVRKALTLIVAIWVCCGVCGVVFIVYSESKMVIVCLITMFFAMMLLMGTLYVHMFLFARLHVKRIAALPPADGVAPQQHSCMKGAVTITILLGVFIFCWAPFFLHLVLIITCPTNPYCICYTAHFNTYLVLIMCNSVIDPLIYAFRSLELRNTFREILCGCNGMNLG

CC(=O)N1CCC(N(CC(C)C)N2CCN(C(=O)[C@@H](Cc3ccc(Cl)cc3)NC(=O)C(C)(C)N)CC2)CC1 [Compound 7.1, N-[(1R)-2-[4-[(1-acetyl-4-piperidyl)-isobutyl-amino]piperazin-1-yl]-1-[(4-chlorophenyl)methyl]-2-oxo-ethyl]-2-amino-2-methyl-propanamide]
pKi (hMC5r [1]): 5.92
pEC50 (mMC1r): 6.34
pEC50 (hMC3r): < 6.00
effect on body weight vs own vehicle group (in words) (C57Bl/6 DIO mice; 30 mg/kg two daily administrations via oral gavage): significant body weight loss
food consumption vs vehicle only (in words) (C57Bl/6 DIO mice; 6 and 24 hour timepoints, 30 mg/kg twice daily oral gavage): significantly decreased
pEC50 (hMC5r [2]): < 6.00
pEC50 (hMC2r): < 6.00
pEC50 (MC4r [3]): 7.64
Emax (MC4r [3]; read-out: relative efficacy, compared to NDP-α-MSH): 33%
pEC50 (MC4r [4]): 8.22
